Reference: PMC7967160, “Synthesis and Antiviral Evaluation of (1,4-Disubstituted-1,2,3-Triazol)-(E)-2-Methyl-but-2-Enyl Nucleoside Phosphonate Prodrugs” (Molecules, 2021)

Assays:
HIV-1 LAI = assay: HIV assay in human PBM cells infected with HIV-1 LAI, RT quantification; format: cell-based; conditions: for inhibition at 10 µM: Human immunodeficiency virus 1, PBMC, PBM cells, HIV-1 LAI
Procedure: The assay was performed as described by Schinazi et al. with minor modifications. […] The supernatants were harvested, and the HIV-1 RT was quantified.

in vitro = format: cell-based; conditions: human; PBM cells; read-out: MTS Cytotoxicity (IC50, μM) PBM
Procedure: (§1) Assays were performed in human peripheral blood mononuclear (PBM) and human liver (HepG2) cells via MTS assay using the CellTiter 96® Non-Radioactive Cell Proliferation (Promega) kit as previously described^3. Cytotoxicity was expressed as the concentration of test compounds that inhibited cell proliferation by 50% (IC50) and calculated using the Chou and Talalay method.

[1] = Cytotoxicity MTS assay in HepG2 cells; format: cell-based; conditions: human
Procedure: as §1

HBV [2] = assay: HBV assay in Huh7 cells transfected with pCI_HBVpg1820, intracapsid viral DNA by real-time PCR; format: cell-based, hepatitis B virus (HBV); conditions: for inhibition at 10 µM: Hepatitis B virus, Huh-7, 96 h
Procedure: In Huh7 cells: antiviral activity against HBV in cell culture was measured as previously described. Briefly, Huh7 cells were transfected with plasmid pCI_HBVpg1820 containing 1.1 unit of HBV genome under the control of a human cytomegalovirus (CMV) promoter. The drugs were stored at 1000× in DMSO at −20 °C. For each experiment, the drugs were diluted in DMEM cell culture medium (Thermo Fisher Scientific, Artenay, France) to a final concentration of 10 μM. All drugs were tested in triplicate in two independent experiments. After 4 days of culture, intracapsid viral DNA was quantified by duplex real-time PCR, using primers described elsewhere, on a LightCycler 480 II apparatus (Roche Diagnostics France, Meylan, France) using TaqMan Universal PCR Mastermix II without UNG (Thermo Fisher Scientific, Artenay, France). Cells were quantified using primers by real-time PCR, using primers HPRT1_F (5′-[…]) and HPRT1_R (5′-[…]), on a LightCycler 480 II apparatus (Roche) using a LightCycler® 480 SYBR Green I Master (Roche Diagnostics France, Meylan, France). Cycling reactions were performed with the following parameters: 5 min at 95 °C, followed by 45 cycles of 10 s at 95 °C, 15 s at 60 °C, 10 s at 72 °C. The inhibition of HBV replication (%) and cell culture viability (%) were quantified using the following formulas. Inhibition of HBV replication (%)=1− HBV DNA copy numberDrug/HBV DNA copy numberCell culture medium Cell viability (%)= HPRT1 DNA copy numberDrug/HPRT1 DNA copy numberCell culture medium

[3] = Cell culture viability in the Huh7 HBV assay (HPRT1 DNA copy number); conditions: human
[4] = tested on: SARS-CoV-2 strain BavPat1; assay: SARS-CoV-2 assay in Vero E6 cells (CellTiter-Blue); conditions: 10 μM
HBV [5] = assay: HBV assay in HepAD38 cells, real-time PCR for HBV DNA in supernatant; format: cell-based; conditions: Hepatitis B virus, 168 h, 7 days
Procedure: In HepAD38 cells were seeded at 50,000 cells/well in collagen-coated 96-well plates. Test compounds or 2′,3′-didéoxy-3′-thiacytidin (3TC) (control) were added to HepAD38 cells to a final concentration of 10 μM.
Real-Time PCR for HBV DNA. The experiment lasted 7 days. On day 7, total DNA was purified from the supernatant using a commercially available kit (DNeasy 96 Blood & Tissue kit, Qiagen). The HBV DNA was amplified in a real-time PCR assay using a LightCycler 480 (Roche) as described elsewhere. All samples were tested in duplicate in two to three independent experiments. Analysis: The concentration of compound that inhibited HBV DNA replication by 50% (EC50) was determined by linear regression.

[6] = read-out: HBV % Inhibition Huh7, 10 μM, Huh7 cells, 4 days
[7] = 10 μM, Huh7 cells, 4 days, read-out: HBV % Inhibition Huh7

Cc1cn([C@H]2C[C@H](N=[N+]=[N-])[C@@H](CO)O2)c(=O)[nH]c1=O [AZT, reference compound] showed an EC50 (HIV-1 LAI; positive control, data not shown, read-out: EC50 anti-HIV) of 0.008 µM.

For CCCc1ccc(-c2cn(C/C(C)=C/CP(=O)(OCOC(=O)OC(C)C)OCOC(=O)OC(C)C)nn2)cc1 [Compound 11a, [[(E)-4-[4-(4-Propylphenyl)triazol-1-yl]-3-methyl-but-2-enyl]-(isopropoxycarbonyloxymethoxy)phosphoryl]oxymethyl isopropyl carbonate], the IC50 (in vitro) was 50.2 µM, the IC50 [1] was 18.3 µM and the “HBV % Inhibition Huh7” value (HBV [2]; 10 μM, Huh7 cells, 4 days) was 51%. For the same molecule, the inhibition at 10 µM (HBV [2]; [6]) was over 40%, the viability at 4 days, 10 µM [3] was 96% and the “SARS-CoV-2 % Inhibition Vero E6” value [4] was under 1%. It also gave an inhibition at 10 µM (HBV [5]) of 19.6% and an inhibition at 10 µM (HIV-1 LAI) of under 1%.

CCCCc1ccc(-c2cn(C/C(C)=C/CP(=O)(OCOC(=O)OC(C)C)OCOC(=O)OC(C)C)nn2)cc1 [Compound 11b, [[(E)-4-[4-(4-Butylphenyl)triazol-1-yl]-3-methyl-but-2-enyl]-(isopropoxycarbonyloxymethoxy)phosphoryl]oxymethyl isopropyl carbonate] showed an IC50 (in vitro) of 19.4 µM, an IC50 [1] of 16.2 µM and an inhibition at 10 µM (HBV [2]; [7]) of 25%. For the same molecule, the viability at 4 days, 10 µM [3] was 88%, the “SARS-CoV-2 % Inhibition Vero E6” value [4] was under 1% and the inhibition at 10 µM (HBV [5]) was 14.4%. It also gave an inhibition at 10 µM (HIV-1 LAI) of under 1%.

For CCCCCc1ccc(-c2cn(C/C(C)=C/CP(=O)(OCOC(=O)OC(C)C)OCOC(=O)OC(C)C)nn2)cc1 [Compound 11c, [[(E)-4-[4-(4-Pentylphenyl)triazol-1-yl]-3-methyl-but-2-enyl]-(isopropoxycarbonyloxymethoxy)phosphoryl]oxymethyl isopropyl carbonate], the IC50 (in vitro) was 47.8 µM, the IC50 [1] was 51.8 µM and the “HBV % Inhibition Huh7” value (HBV [2]; 10 μM, Huh7 cells, 4 days) was 42%. The inhibition at 10 µM (HBV [2]; [6]) was over 40%, the viability at 4 days, 10 µM [3] was 89% and the “SARS-CoV-2 % Inhibition Vero E6” value [4] was under 1%. For the same molecule, the inhibition at 10 µM (HBV [5]) was under 1% and the inhibition at 10 µM (HIV-1 LAI) was 44.4%.

For CCCCCCc1ccc(-c2cn(C/C(C)=C/CP(=O)(OCOC(=O)OC(C)C)OCOC(=O)OC(C)C)nn2)cc1 [Compound 11d, [[(E)-4-[4-(4-Hexylphenyl)triazol-1-yl]-3-methyl-but-2-enyl]-(isopropoxycarbonyloxymethoxy)phosphoryl]oxymethyl isopropyl carbonate], the IC50 (in vitro) was 23.7 µM, the IC50 [1] was 59.6 µM and the inhibition at 10 µM (HBV [2]; [7]) was 39%. For the same molecule, the viability at 4 days, 10 µM [3] was 100%, the “SARS-CoV-2 % Inhibition Vero E6” value [4] was under 1% and the inhibition at 10 µM (HBV [5]) was 38.8%. For the same molecule, the inhibition at 10 µM (HIV-1 LAI) was 41.8%.

With CCCCCCCc1ccc(-c2cn(C/C(C)=C/CP(=O)(OCOC(=O)OC(C)C)OCOC(=O)OC(C)C)nn2)cc1 [Compound 11e, [[(E)-4-[4-(4-Heptylphenyl)triazol-1-yl]-3-methyl-but-2-enyl]-(isopropoxycarbonyloxymethoxy)phosphoryl]oxymethyl isopropyl carbonate] the IC50 (in vitro) was 9.2 µM, the IC50 [1] was 90.8 µM and the “HBV % Inhibition Huh7” value (HBV [2]; 10 μM, Huh7 cells, 4 days) was 50%. The inhibition at 10 µM (HBV [2]; [6]) was over 40%, the viability at 4 days, 10 µM [3] was 95% and the “SARS-CoV-2 % Inhibition Vero E6” value [4] was under 1%. The inhibition at 10 µM (HBV [5]) was 33.5% and the inhibition at 10 µM (HIV-1 LAI) was 29.9%.

C/C(=C\CP(=O)(OCOC(=O)OC(C)C)OCOC(=O)OC(C)C)Cn1cc(C2CC2)nn1 [Compound 11f, [[(E)-4-(4-Cyclopropyltriazol-1-yl)-3-methyl-but-2-enyl]-(isopropoxycarbonyloxymethoxy)phosphoryl]oxymethyl isopropyl carbonate] gave an IC50 (in vitro) of 25.5 µM, an IC50 [1] of over 100 µM and an inhibition at 10 µM (HBV [2]; [7]) of under 1%. The viability at 4 days, 10 µM [3] was 100%, the “SARS-CoV-2 % Inhibition Vero E6” value [4] was under 1% and the inhibition at 10 µM (HBV [5]) was 36.3%. For the same molecule, the inhibition at 10 µM (HIV-1 LAI) was 30.7%.

C/C(=C\CP(=O)(OCOC(=O)OC(C)C)OCOC(=O)OC(C)C)Cn1cc(C(C)(C)C)nn1 [Compound 11g, [[(E)-4-(4-tert-Butyltriazol-1-yl)-3-methyl-but-2-enyl]-(isopropoxycarbonyloxymethoxy)phosphoryl]oxymethyl isopropyl carbonate] showed an IC50 (in vitro) of 28.3 µM, an IC50 [1] of over 100 µM and an inhibition at 10 µM (HBV [2]; [7]) of 10%. For the same molecule, the viability at 4 days, 10 µM [3] was 79%, the “SARS-CoV-2 % Inhibition Vero E6” value [4] was under 1% and the inhibition at 10 µM (HBV [5]) was 17.3%. For the same molecule, the inhibition at 10 µM (HIV-1 LAI) was 12.3%.

C/C(=C\CP(=O)(OCOC(=O)OC(C)C)OCOC(=O)OC(C)C)Cn1cc(CO)nn1 [Compound 11h, [[(E)-4-[4-(Hydroxymethyl)triazol-1-yl]-3-methyl-but-2-enyl]-(isopropoxycarbonyloxymethoxy)phosphoryl]oxymethyl isopropyl carbonate] gave an IC50 (in vitro) of 76.4 µM, an IC50 [1] of over 100 µM and an inhibition at 10 µM (HBV [2]; [7]) of 28%. For the same molecule, the viability at 4 days, 10 µM [3] was 100%, the “SARS-CoV-2 % Inhibition Vero E6” value [4] was 12% and the inhibition at 10 µM (HBV [5]) was 15.1%. For the same molecule, the inhibition at 10 µM (HIV-1 LAI) was under 1%.

C/C(=C\CP(=O)(OCOC(=O)OC(C)C)OCOC(=O)OC(C)C)Cn1cc(C=O)nn1 [Compound 11i, [[(E)-4-(4-Formyltriazol-1-yl)-3-methyl-but-2-enyl]-(isopropoxycarbonyloxymethoxy)phosphoryl]oxymethyl isopropyl carbonate] gave an IC50 (in vitro) of 75.1 µM, an IC50 [1] of over 100 µM and an inhibition at 10 µM (HBV [2]; [7]) of 33%. For the same molecule, the viability at 4 days, 10 µM [3] was 95%, the “SARS-CoV-2 % Inhibition Vero E6” value [4] was under 1% and the inhibition at 10 µM (HBV [5]) was 6.1%. The inhibition at 10 µM (HIV-1 LAI) was 28.4%.

Molecule C/C(=C\CP(=O)(OCOC(=O)OC(C)C)OCOC(=O)OC(C)C)Cn1cc(C(=O)O)nn1 [Compound 11m, 1-[(E)-4-[Bis(isopropoxycarbonyloxymethoxy)phosphoryl]-2-methyl-but-2-enyl]triazole-4-carboxylic acid] has an IC50 [1] of over 100 µM, an inhibition at 10 µM (HBV [2]; [7]) of 12% and a viability at 4 days, 10 µM [3] of 57%. For the same molecule, the “SARS-CoV-2 % Inhibition Vero E6” value [4] was under 1%, the inhibition at 10 µM (HBV [5]) was 41.3% and the inhibition at 10 µM (HIV-1 LAI) was 12.9%.

For CCCCCCCCCCCCCCCCOCCCOP(=O)(C/C=C(\C)Cn1cc(-c2ccc(CCC)cc2)nn1)OCOC(=O)OC(C)C (stereo not shown) [Compound 15a, [3-Hexadecyloxypropoxy-[(E)-3-methyl-4-[4-(4-propylphenyl]triazol-1-yl]but-2-enyl]phosphoryl]oxymethyl isopropyl carbonate], the inhibition at 10 µM (HBV [2]; [7]) was under 1%, the viability at 4 days, 10 µM [3] was 95% and the “SARS-CoV-2 % Inhibition Vero E6” value [4] was under 1%.

For CCCCCCCCCCCCCCCCOCCCOP(=O)(C/C=C(\C)Cn1cc(-c2ccc(CCCCCCC)cc2)nn1)OCOC(=O)OC(C)C (stereo not shown) [Compound 15e, [3-Hexadecyloxypropoxy-[(E)-3-methyl-4-[4-(heptylphenyl)triazol-1-yl]but-2-enyl]phosphoryl]oxymethyl isopropyl carbonate], the inhibition at 10 µM (HBV [2]; [7]) was 8%, the viability at 4 days, 10 µM [3] was 100% and the “SARS-CoV-2 % Inhibition Vero E6” value [4] was under 1%.

With CCCCCCCCCCCCCCCCOCCCOP(=O)(C/C=C(\C)Cn1cc(-c2ccc([N+](=O)[O-])cc2)nn1)OCOC(=O)OC(C)C (stereo not shown) [Compound 15l, [3-Hexadecyloxypropoxy-[(E)-3-methyl-4-[4-(nitrophenyl)triazol-1-yl]but-2-enyl]phosphoryl]oxymethyl isopropyl carbonate] the inhibition at 10 µM (HBV [2]; [7]) was 12%, the viability at 4 days, 10 µM [3] was 100% and the “SARS-CoV-2 % Inhibition Vero E6” value [4] was under 1%.

For CCC(CC)COC(=O)[C@H](C)N[P@](=O)(OC[C@H]1O[C@@](C#N)(c2ccc3c(N)ncnn23)[C@H](O)[C@@H]1O)Oc1ccccc1 [Remdesivir, reference compound], the “SARS-CoV-2 % Inhibition Vero E6” value [4] was 100%.

Molecule C[C@@H]1C[C@@H]([C@H](O)CC2CC(=O)NC(=O)C2)C(=O)[C@@H](C)C1 [cycloheximide, reference compound] has an IC50 (in vitro) of 1 µM and an IC50 [1] of 1.5 µM.
